Data on two molecules can be found in paper PMC11420244, “Evaluation of the effect of modafinil on the pharmacokinetics of encorafenib and binimetinib in patients with BRAF V600-mutant advanced solid tumors” (Cancer Chemotherapy and Pharmacology, 2024).

One may read the Cmax as the peak of the concentration-time curve. Broadly, the Tmax is the time from dosing to the highest level.

“Also recorded” adds a separate entry of the source. Like-named read-outs stand apart in the source and are kept apart here.

Series [1] is described as follows: Phase 1 clinical DDI study: steady-state plasma PK (noncompartmental analysis) with and without modafinil. In kind it is in vivo, Human. Particulars: for AUClast GMR (geometric mean ratio) / Cmax GMR (geometric mean ratio): Day 21 (with modafinil) relative to Day 14 (without); for Effect of steady-state modafinil on exposure/PK (in words): Day 21 vs Day 14, modafinil 400 mg QD; for AUC(0-t) / half-life / Cmax / Tmax: human; for Tmax: read-out: Tmax, Median (range). On the procedure:
Encorafenib 450 mg QD and binimetinib 45 mg BID were administered starting on Day 1. Patients then received continuous treatment of 400 mg QD modafinil on Day 15 through Day 21. Blood samples for measurement of plasma concentrations of encorafenib (and its metabolite, LHY746) and binimetinib (and its active metabolite, AR00426032), were collected at 0, 1, 2, 3, 4, 6 and 8 h post dose on Day 14 and Day 21.
Human PK plasma samples were analyzed for quantitation of all PK analytes at PPD (Middleton, Wisconsin, US) using validated, sensitive, and specific HPLC/MS/MS methods in compliance with laboratory SOPs.
PK parameters including, but not limited to, Cmax and AUClast were calculated for each participant using noncompartmental analysis (NCA) methods using the WinNonlin software package (Phoenix WinNonlin Professional, version 8.0 Pharsight Corporation, Mountain View, California) for PK analytes including encorafenib and its metabolite LHY746, and binimetinib and its metabolite AR00426032.
All patients who received at least one dose of any study drug were included in the Safety Set population. The Evaluable PK Set included all patients with sufficient concentration data to calculate at least one PK parameter for encorafenib and binimetinib on Days 14 and 21. Patients who discontinued, missed 3 or more consecutive doses of encorafenib prior to completion of the last PK sampling on Day 14, or required a dose reduction of encorafenib prior to completion of the last PK sampling on Day 14 were excluded from the Evaluable PK set. In addition, patients who missed any dose of study drugs on any of the PK days, or who vomited within 4 h after dosing on any of the PK days were excluded from Evaluable PK set.
An analysis of variance (ANOVA) was performed on the natural log (ln)-transformed Cmax and AUClast of encorafenib, LHY746, binimetinib, and AR00426032. The least squares means (LSM) geometric mean ratio (GMR) and associated 90% confidence interval (CI) for each PK parameter were calculated using the exponentiation of the difference between treatment LSM from the analyses on the ln-transformed parameters and expressed as a percentage of Day 21 relative to Day 14.

The subject of another series is UGT1A1. Particulars: cited from earlier work.
Another series deals with CYP3A4. Set-up: method as in earlier work. The settings on record: human liver microsomes; cited from earlier work. For orientation: Liver microsomes are a subcellular fraction often used to study metabolism.
The conditions of series [2]: PBPK simulations conducted prior to the study; cited from earlier work.
On the set-up of series [3]: method as in PMID 37837178. Particulars: cited from earlier work.
In another series the test system is CYP2C19. Particulars: cited from earlier work.
Details of series [4]: method as in PMID 28611198. The settings on record: cited from earlier work.
Series [5] is described as follows: Extrapolation of strong CYP3A inducer effect on encorafenib from the moderate inducer effect (strong/moderate ratio approach). The settings on record: extrapolated from the modafinil effect with strong/moderate ratios 1.15 to 2.43. The source says: Another strategy to predict the effect strong induction may have on encorafenib PK, or the PK of other CYP3A substrates, but with fewer assumptions was proposed in a review by Molenaar-Kuijsten et al.. Based on a review of 12 approved oral anticancer drugs primarily metabolized by CYP3A, if no clinical DDI data were available for moderate inducers, an effect of 50% compared to strong inducers could be assumed. After expanding the dataset of Molenaar-Kuijsten to include 3 additional approved oral anti-cancer drugs (fuzuloparib, pirtobrutinib, and fedratinib) metabolized by CYP3A, we applied this approach in the opposite direction (lack of clinical data for the effect of strong CYP3A4 inducers) given available clinical DDI data generated in this study for encorafenib (Table 3). The median ratio of the decrease for a strong inducer to a moderate inducer was 1.56 and ranged from 1.15 for cobimetinib to 2.43 for palbociclib. […] The upper end of this range is consistent with PBPK simulations conducted prior to the study, indicating encorafenib exposures would decrease by ∼ 58% in combination with rifampin (based on a model with some simplifying assumptions) and would also be consistent with the recommendations based on in vitro data to avoid strong inducers in combination with encorafenib. […]

[6] abbreviates: Day 21, with modafinil 400 mg QD, steady state, plasma, patients.
Setting [7] is: plasma, oral, 400 mg, Day 21, with modafinil 400 mg QD, steady state, plasma, patients, read-out: AUClast, GM (CV%).
Setting [8] is: plasma, oral, 400 mg, Day 21, with modafinil 400 mg QD, steady state, plasma, patients, read-out: AUClast, Median (range).
Where [9] appears, read: plasma, oral, 400 mg, Day 21, with modafinil 400 mg QD, steady state, plasma, patients, read-out: T1/2, GM (CV%) (converted).
Where [10] appears, read: plasma, oral, 400 mg, Day 21, with modafinil 400 mg QD, steady state, plasma, patients, read-out: T1/2, Median (range) (converted).
The mark [11] stands for this setting: plasma, oral, Day 14, without modafinil, steady state, plasma, patients, read-out: AUClast, GM (CV%).
Where [12] appears, read: plasma, oral, Day 14, without modafinil, steady state, plasma, patients, read-out: AUClast, Median (range).
Setting [13] is: plasma, oral, Day 14, without modafinil, steady state, plasma, patients, read-out: Cmax, Median (range).
Where [14] appears, read: plasma, oral, Day 14, without modafinil, steady state, plasma, patients, read-out: T1/2, GM (CV%) (converted).
The mark [15] stands for this setting: plasma, oral, Day 14, without modafinil, steady state, plasma, patients, read-out: T1/2, Median (range) (converted).
Setting [16] is: plasma, po, Day 14, without modafinil, steady state, encorafenib 450 mg QD + binimetinib 45 mg BID oral, plasma, patients, read-out: Cmax, GM (CV%).
Setting [17] is: plasma, po, Day 21, with modafinil 400 mg QD Days 15-21, steady state, encorafenib 450 mg QD + binimetinib 45 mg BID oral, plasma, patients, read-out: Cmax, GM (CV%).

As to `Cn1cnc2c(F)c(Nc3ccc(Br)cc3F)c(C(=O)NOCCO)cc21` [Binimetinib, binimetinib], in series [1], the “AUClast GMR (geometric mean ratio)” value turned out to be 0.957. Moreover, the “Cmax GMR (geometric mean ratio)” value in series [1] is on record as 1; in series [1] (listed as binimetinib), 1.00. The “Cmax, Median (range)” value in series [1] (setting [6]) is on record as 686 (424–923) ng/mL. Moreover, the “Tmax, Median (range)” value in series [1] (setting [6]) is given as 1.00 (0.95–2.10) hr. The “Effect of steady-state modafinil on exposure/PK (in words)” value in series [1] was “similar; also recorded: no change”. For the same molecule, in series [1] (Days 14 and 21, steady state), the “Time at which mean plasma concentrations typically reach peak levels, postdose” value is reported as 1 h. Moreover, the AUC(0-t) in series [1] (setting [7]) turned out to be 2290 ng·h/mL; in series [1] (setting [8]) it was 2430 ng·h/mL; in series [1] (setting [11]), 2400 ng·h/mL; in series [1] (setting [12]), 2670 ng·h/mL. The half-life in series [1] (setting [9]) is 4.55 h; in series [1] (setting [10]), 4.47 h; in series [1] (setting [14]), 4.62 h; in series [1] (setting [15]), 5.15 h. For the same molecule, the values for the peak concentration (Cmax) in series [1] (setting [13]), in series [1] (setting [16]) and in series [1] (setting [17]) were 609 ng/mL, 660 ng/mL and 663 ng/mL, respectively. Besides, the “Contribution of UGT1A1-mediated metabolism to metabolism” value in the series with UGT1A1 is recorded as “up to 61%”.

On to `COC(=O)N[C@@H](C)CNc1nccc(-c2cn(C(C)C)nc2-c2cc(Cl)cc(NS(C)(=O)=O)c2F)n1` [Encorafenib, encorafenib], for which, in the series with CYP3A4, the “Contribution of CYP3A4 to total oxidative clearance” value is roughly 83%. The “AUClast GMR (geometric mean ratio)” value in series [1] is reported as 0.762. For the same molecule, the “Cmax GMR (geometric mean ratio)” value in series [1] is reported as 0.798. In addition, the “Effect of steady-state modafinil on exposure/PK (in words)” value in series [1] is given as “weak effect”. Moreover, the Tmax in series [1] (oral, Day 14, without modafinil, steady state, plasma, patients) is 1 h; in series [1] (oral, Day 21, with modafinil 400 mg QD, steady state, plasma, patients) it was 1 h. The AUC(0-t) was 9100 ng·h/mL in series [1] (setting [7]), 10000 ng·h/mL in series [1] (setting [8]), 11900 ng·h/mL in series [1] (setting [11]) and 11800 ng·h/mL in series [1] (setting [12]). Further, the Cmax in series [1] (plasma, oral, 400 mg, Day 21, with modafinil 400 mg QD, steady state, plasma, patients, read-out: Cmax, Median (range)) was 2750 ng/mL; in series [1] (setting [13]), 3560 ng/mL; in series [1] (setting [16]) it was 3540 ng/mL; in series [1] (setting [17]), 2830 ng/mL. Moreover, the half-life was 3.57 h in series [1] (setting [9]), 3.8 h in series [1] (setting [10]), 3.48 h in series [1] (setting [14]) and 3.5 h in series [1] (setting [15]). Besides, in series [2], the “Simulated decrease of exposures in combination with rifampin” value is roughly 58%. Further, the “Increase in exposures on coadministration of moderate CYP3A4 inhibitor diltiazem” value in series [3] is on record as 2 fold. Further, the “Increase in exposures on coadministration of strong CYP3A inhibitor posaconazole” value in series [3] is given as 3 fold. For the same molecule, the “Contribution of CYP2C19 to oxidative metabolism” value with CYP2C19 is roughly 16%. The “Lower exposure at steady-state compared to following a single dose (auto-induction of CYP3A4)” value in series [4] is “approximately 50%”. For the same molecule, the “Expected reduction in AUC with a strong CYP3A inducer” value in series [5] is listed as 28–58%.
